In one experiment the target is T1, human MAO-B (Homo sapiens, UniProt P27338).
T1 construct: expressed in transfected cells; host or cells: EBNA cells (transient transfection); cell membranes used
T1 sequence (P27338 1-520): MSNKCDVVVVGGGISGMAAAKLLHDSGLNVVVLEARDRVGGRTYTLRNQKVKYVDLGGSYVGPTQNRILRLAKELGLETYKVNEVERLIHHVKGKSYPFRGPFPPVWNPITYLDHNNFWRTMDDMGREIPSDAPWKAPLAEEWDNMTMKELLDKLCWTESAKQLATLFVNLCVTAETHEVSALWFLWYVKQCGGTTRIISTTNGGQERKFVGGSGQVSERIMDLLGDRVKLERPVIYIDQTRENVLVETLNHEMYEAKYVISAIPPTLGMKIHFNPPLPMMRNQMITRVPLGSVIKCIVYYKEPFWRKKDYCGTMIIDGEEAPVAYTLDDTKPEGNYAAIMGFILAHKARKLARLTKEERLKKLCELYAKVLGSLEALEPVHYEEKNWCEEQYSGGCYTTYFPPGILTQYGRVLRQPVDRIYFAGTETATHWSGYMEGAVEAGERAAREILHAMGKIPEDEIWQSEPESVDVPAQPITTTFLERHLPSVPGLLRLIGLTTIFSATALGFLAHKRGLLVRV
Description: MAO-B enzymatic activity, spectrophotometric assay (tyramine, Amplex Red) on membranes of transfected EBNA cells. Format: biochemical. The procedure: The cDNA's encoding human MAO-A and MAO-B were transiently transfected into EBNA cells using the procedure described by E.-J. Schlaeger and K. Christensen (Transient Gene Expression in Mammalian Cells Grown in Serum-free Suspension Culture; Cytotechnology, 15: 1-13, 1998). After transfection, cells were homogenised by means of a Polytron homogenizer in 20 mM Tris HCl buffer, pH 8.0, containing 0.5 mM EGTA and 0.5 mM phenylmethanesulfonyl fluoride. Cell membranes were obtained by centrifugation at 45,000×g and, after two rinsing step with 20 mM Tris HCl buffer, pH 8.0, containing 0.5 mM EGTA, membranes were eventually re-suspended in the above buffer and aliquots stored at −80° C. until use.
(§1) MAO-A and MAO-B enzymatic activity was assayed in 96-well-plates using a spectrophotometric assay adapted from the method described by M. Zhou and N. Panchuk-Voloshina (A One-Step Fluorometric Method for the Continuous Measurement of Monoamine Oxidase Activity, Analytical Biochemistry, 253: 169174, 1997). Briefly, membrane aliquots were incubated in 0.1 M potassium phosphate buffer, pH 7.4, for 30 min at 37° C. with or without various concentrations of the compounds. After this period, the enzymatic reaction was started by the addition of the MAO substrate tyramine together with 1 U/ml horse-radish peroxidase (Roche Biochemicals) and 80 μM N-acetyl-3,7,-dihydroxyphenoxazine (Amplex Red, Molecular Probes). The samples were further incubated for 30 min at 37° C. in a final volume of 200 μl and absorbance was then determined at a wavelength of 570 nm using a SpectraMax plate reader (Molecular Devices). Background (non-specific) absorbance was determined in the presence of 10 μM clorgyline for MAO-A or 10 μM L-deprenyl for MAO-B.
IC50 values, that is, the concentration of a test compound according to the invention required to inhibit the MAO-B enzyme activity by 50%, were determined from inhibition curves obtained using nine inhibitor concentrations in duplicate, by fitting data to a four parameter logistic equation using a computer program.

Another experiment has as its target T2, human MAO-A (Homo sapiens, UniProt P21397).
T2 construct: expressed in transfected cells; host or cells: EBNA cells (transient transfection); cell membranes used
Description: MAO-A enzymatic activity, spectrophotometric assay (tyramine, Amplex Red) on membranes of transfected EBNA cells. Format: biochemical. The method, then: After transfection, cells were homogenised by means of a Polytron homogenizer in 20 mM Tris HCl buffer, pH 8.0, containing 0.5 mM EGTA and 0.5 mM phenylmethanesulfonyl fluoride. Cell membranes were obtained by centrifugation at 45,000×g and, after two rinsing step with 20 mM Tris HCl buffer, pH 8.0, containing 0.5 mM EGTA, membranes were eventually re-suspended in the above buffer and aliquots stored at −80° C. until use.
as §1, with “Briefly,” for “MAO-A and MAO-B enzymatic activity was assayed in 96-well-plates using a spectrophotometric assay adapted from the method described by M. Zhou and N. Panchuk-Voloshina (A One-Step Fluorometric Method for the Continuous Measurement of Monoamine Oxidase Activity, Analytical Biochemistry, 253: 169174, 1997). Briefly,”

The mark [1] stands for this setting: membranes, 30 min preincubation at 37° C., pH 7.4, substrate tyramine, read-out: IC50 MAO-A.

pIC50: −log10 of the molar value. Where two headings read alike, the source gives them in different places. Bounds are passed on as bounds.

T2 sequence (P21397 whole entry): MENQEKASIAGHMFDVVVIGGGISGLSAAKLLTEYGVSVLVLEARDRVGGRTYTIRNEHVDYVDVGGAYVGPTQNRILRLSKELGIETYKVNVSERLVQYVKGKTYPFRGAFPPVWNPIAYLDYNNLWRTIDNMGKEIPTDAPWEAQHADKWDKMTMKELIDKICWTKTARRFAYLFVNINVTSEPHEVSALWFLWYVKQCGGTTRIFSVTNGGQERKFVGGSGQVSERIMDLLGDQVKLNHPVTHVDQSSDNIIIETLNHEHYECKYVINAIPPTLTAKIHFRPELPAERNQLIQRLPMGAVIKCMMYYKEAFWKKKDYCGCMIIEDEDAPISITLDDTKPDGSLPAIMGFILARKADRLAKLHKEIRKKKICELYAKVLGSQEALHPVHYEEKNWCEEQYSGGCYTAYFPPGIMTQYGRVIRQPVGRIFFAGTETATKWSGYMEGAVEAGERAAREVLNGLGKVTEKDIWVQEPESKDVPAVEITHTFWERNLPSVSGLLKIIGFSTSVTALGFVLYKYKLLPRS

Regarding `CC(C(N)=O)N1CCc2cc(OCc3cccc(F)c3)ccc2C1=O` (racemic) [Example 7, 2-[6-(3-Fluoro-benzyloxy)-1-oxo-3,4-dihydro-1H-isoquinolin-2-yl]-propionamide], the pIC50 was 7.92 at human MAO-B and less than 5.00 at human MAO-A (setting [1]).

Consider `O=C1NCCc2cc(OCc3cccc(F)c3)ccc21` [Example 1, 6-(3-Fluoro-benzyloxy)-3,4-dihydro-2H-isoquinolin-1-one], for which the results for the pIC50 against human MAO-B and at human MAO-A (setting [1]) were 6.98 and 5.28, respectively.

On to `NC(=O)CN1CCc2cc(OCc3cccc(F)c3)ccc2C1=O` [Example 6, 2-[6-(3-Fluoro-benzyloxy)-1-oxo-3,4-dihydro-1H-isoquinolin-2-yl]-acetamide], for which the pIC50 is 8.10 against human MAO-B and 6.48 at human MAO-A (setting [1]).

For `CC(CO)N1CCc2cc(OCc3cccc(F)c3)ccc2C1=O` (stereo not shown) [Example 8, 6-(3-Fluoro-benzyloxy)-2-(2-hydroxy-1-methyl-ethyl)-3,4-dihydro-2H-isoquinolin-1-one], the pIC50 at human MAO-B is 7.13; on human MAO-A (setting [1]), less than 5.00.

Consider `N#CCN1CCc2cc(OCc3cccc(F)c3)ccc2C1=O` [Example 12, [6-(3-Fluoro-benzyloxy)-1-oxo-3,4-dihydro-1H-isoquinolin-2-yl]-acetonitrile], for which, on human MAO-B, the negative logarithm of the IC50 (pIC50) was 6.81.

As for `COCC(C)N1CCc2cc(OCc3cccc(F)c3)ccc2C1=O` (stereo not shown) [Example 14, 6-(3-Fluoro-benzyloxy)-2-(2-methoxy-1-methyl-ethyl)-3,4-dihydro-2H-isoquinolin-1-one], the pIC50 against human MAO-B is 7.20; on human MAO-A it was 5.37.

Consider `NC(=O)CCN1CCc2cc(OCc3cccc(F)c3)ccc2C1=O` [Example 19, 3-[6 (3-Fluoro-benzyloxy)-1-oxo-3,4-dihydro-1H-isoquinolin-2-yl]-propionamide], for which the pIC50 on human MAO-B is 6.41.

Consider `C[C@H](C(N)=O)N1CCc2cc(OCc3ccc(F)cc3)ccc2C1=O` [Example 20, 2-(R)-[6-(4-Fluoro-benzyloxy)-1-oxo-3,4-dihydro-1H-isoquinolin-2-yl]-propionamide], for which the pIC50 against human MAO-B was 7.92; on human MAO-A, less than 5.00.

For `C[C@@H](C(N)=O)N1CCc2cc(OCc3ccc(F)cc3)ccc2C1=O` [Example 21, 2(S)-[6-(4-Fluoro-benzyloxy)-1-oxo-3,4-dihydro-1H-isoquinolin-2-yl]-propionamide], the pIC50 against human MAO-B is 7.74; against human MAO-A, less than 5.00.

As to `NC(=O)[C@H](CO)N1CCc2cc(OCc3ccc(F)cc3)ccc2C1=O` [Example 22, 2(S)-[6(4-Fluoro-benzyloxy)-1-oxo-3,4-dihydro-1H-isoquinolin-2-yl]-3-hydroxy-propionamide], the negative-log IC50 (pIC50) was 7.70 against human MAO-B and less than 5.00 at human MAO-A.

In the case of `CC(C)(C(N)=O)N1CCc2cc(OCc3ccc(F)cc3)ccc2C1=O` [Example 30, 2-[6-(4-Fluoro-benzyloxy)-1-oxo-3,4-dihydro-1H-isoquinolin-2-yl]-isobutyramide], on human MAO-B, the pIC50 is 5.95.

These data come from patent publication US6818774B2, “Isoquinoline derivatives” (priority 2002, dated 2004).
